Experimental data: patent publication EP0119428A2, “Biscarboxamides for treating diseases, and process for their preparation” (BAYER AG, priority 1983, dated 1984)

Test system: spontan hypertensiven Ratte
Assay: Blood pressure lowering in the spontaneously hypertensive rat after oral dosing
Type: in vivo
Conditions: lowest dose that still lowers blood pressure by at least 15 mm Hg, read-out: niederste noch wirksame, orale Dosis
Excerpt: Die in der folgenden Tabelle angeführten Verbindungen senken an der spontan hypertensiven Ratte den Blutdruck um mindestens 15 mm Hg. Angegeben ist die niederste noch wirksame, orale Dosis.

CC(NC(=O)c1ccccc1C(=O)Nc1ccccc1)C(C)(C)C (stereo not drawn) [Beispiel 12, N-Phenyl-N'-(1,2,2-trimethylpropyl)-phtalamid]
minimal effective dose: 10 mg/kg

CCOc1ccccc1NC(=O)c1ccccc1C(=O)NC(C)C(C)(C)C (stereo not drawn) [Beispiel 13, N-(2-Ethoxyphenyl)-N'-(1,2,2-trimethylpropyl)-phtalamid]
minimal effective dose: 10 mg/kg

CC(NC(=O)c1ccccc1C(=O)Nc1cccnc1)C(C)(C)C (stereo not drawn) [Beispiel 26, N-(3-Pyridyl)-N'-(1,2,2-trimethylpropyl)-phtalamid]
minimal effective dose: 3 mg/kg
